The target in assay [1] is T1, Melanocortin receptor 4 (Homo sapiens, UniProt P32245). Description: Inhibition of [125I]-NDP- alpha-MSH binding to human melanocortin 4 receptor expressed in CHO cells. It counts as cell-based.
For assay [2], the target named is T1, Melanocortin receptor 4. Kind of assay: Maximum percentage of cAMP accumulation compared to alpha-MSH at human melanocortin 4 receptor at 10 uM. The format is functional.
Assay [3] concerns the target T1, Melanocortin receptor 4. Kind of assay: Effective concentration at human melanocortin 4 receptor in cAMP release assay. The format is functional.
For assay [4], the target named is T2, Melanocyte-stimulating hormone receptor (Homo sapiens, UniProt Q01726). Description: Effective concentration against human melanocortin 1 receptor in cAMP release assay. The format is functional.
Target sequence in this assay (Q01726 whole entry): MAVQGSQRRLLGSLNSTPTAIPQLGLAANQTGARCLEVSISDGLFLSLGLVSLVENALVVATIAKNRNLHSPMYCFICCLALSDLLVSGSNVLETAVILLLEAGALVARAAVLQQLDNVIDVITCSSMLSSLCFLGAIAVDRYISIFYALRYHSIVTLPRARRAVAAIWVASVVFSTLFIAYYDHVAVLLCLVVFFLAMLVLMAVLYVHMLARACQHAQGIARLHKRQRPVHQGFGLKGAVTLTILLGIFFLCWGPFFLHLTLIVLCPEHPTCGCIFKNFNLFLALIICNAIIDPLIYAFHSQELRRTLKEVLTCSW
The target of assay [5] is T3, Melanocortin receptor 3 (Homo sapiens, UniProt P41968). Kind of assay: Effective concentration against human melanocortin 3 receptor in cAMP release assay. It counts as functional.
T3 sequence (P41968 whole entry): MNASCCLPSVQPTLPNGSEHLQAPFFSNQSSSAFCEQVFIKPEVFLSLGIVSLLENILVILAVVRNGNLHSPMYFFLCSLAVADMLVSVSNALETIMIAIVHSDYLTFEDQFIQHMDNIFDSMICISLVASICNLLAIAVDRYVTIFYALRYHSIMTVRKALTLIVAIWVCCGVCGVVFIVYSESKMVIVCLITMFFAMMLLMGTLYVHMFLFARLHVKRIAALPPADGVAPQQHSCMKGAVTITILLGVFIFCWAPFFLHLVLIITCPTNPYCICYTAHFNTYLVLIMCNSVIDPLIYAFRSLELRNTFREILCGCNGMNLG
Assay [6] concerns the target T2, Melanocyte-stimulating hormone receptor. Kind of assay: Inhibition of [125I]-NDP- alpha-MSH binding to human melanocortin 1 receptor.
Target sequence in this assay (Q01726 whole entry): as the sequence (Q01726 whole entry) above
The target in assay [7] is T3, Melanocortin receptor 3. Description: Inhibition of [125I]-NDP- alpha-MSH binding to human melanocortin 3 receptor.
Assay [8] addresses T1, Melanocortin receptor 4. Description: Inhibition of [125I]-NDP- alpha-MSH binding to human melanocortin 4 receptor.
Assay [9] addresses T4, Melanocortin receptor 5 (Homo sapiens, UniProt P33032). Kind of assay: Inhibition of [125I]-NDP- alpha-MSH binding to human melanocortin 5 receptor.
Assay [10] concerns the target T3, Melanocortin receptor 3. Description: Maximum percentage of cAMP accumulation compared to alpha-MSH at human melanocortin 3 receptor at 10 uM. The format is functional.
Assay [11] addresses T4, Melanocortin receptor 5. Kind of assay: Maximum percentage of cAMP accumulation compared to alpha-MSH at human melanocortin 5 receptor at 10 uM. It counts as functional.
For assay [12], the target named is T1, Melanocortin receptor 4. Description: Maximum percentage of cAMP accumulation relative to alpha-MSH at human melanocortin 4 receptor at 10 uM. The format is functional.
Assay [13] addresses T3, Melanocortin receptor 3. Description: Inhibition of [125I]-NDP- alpha-MSH binding to human melanocortin 3 receptor expressed in CHO cells. It counts as cell-based.
Assay [14] deals with T4, Melanocortin receptor 5. Kind of assay: Inhibition of [125I]-NDP- alpha-MSH binding to human melanocortin 5 receptor expressed in CHO cells. The format is cell-based.
For assay [15], the target named is T3, Melanocortin receptor 3. Description: Inhibition of [125I]-NDP- alpha-MSH binding to human melanocortin 3 receptor expressed in CHO cell at 4 uM. The format is cell-based.
The target in assay [16] is T4, Melanocortin receptor 5. Description: Effective concentration against human melanocortin 5 receptor in cAMP release assay. It counts as functional.
Assay [17] addresses T4, Melanocortin receptor 5. Kind of assay: Maximum percentage of cAMP accumulation compared to alpha-MSH at human melanocortin 5 receptor. The format is functional.
Assay [18] has as its target T2, Melanocyte-stimulating hormone receptor. Particulars: 10 uM.
Target sequence in this assay (Q01726 whole entry, looked up): as the sequence (Q01726 whole entry) above
Description: Maximum percentage of cAMP accumulation compared to alpha-MSH at human melanocortin 1 receptor at 10 uM
The target of assay [19] is T3, Melanocortin receptor 3. Kind of assay: Maximum percentage of cAMP accumulation compared to alpha-MSH at human melanocortin 3 receptor. It counts as functional.

The structures appear in SMILES notation. Some results are limits rather than exact numbers.

T4 sequence (P33032 whole entry): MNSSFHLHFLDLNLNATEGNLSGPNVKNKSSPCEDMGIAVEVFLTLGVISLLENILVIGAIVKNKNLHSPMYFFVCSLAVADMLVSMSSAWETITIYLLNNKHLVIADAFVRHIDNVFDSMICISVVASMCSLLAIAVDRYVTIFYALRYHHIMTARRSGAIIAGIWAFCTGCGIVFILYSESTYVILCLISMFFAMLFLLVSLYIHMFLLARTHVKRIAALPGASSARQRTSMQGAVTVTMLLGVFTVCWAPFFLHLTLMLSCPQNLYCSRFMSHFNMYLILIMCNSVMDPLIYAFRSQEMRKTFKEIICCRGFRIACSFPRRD
T1 sequence (P32245 whole entry): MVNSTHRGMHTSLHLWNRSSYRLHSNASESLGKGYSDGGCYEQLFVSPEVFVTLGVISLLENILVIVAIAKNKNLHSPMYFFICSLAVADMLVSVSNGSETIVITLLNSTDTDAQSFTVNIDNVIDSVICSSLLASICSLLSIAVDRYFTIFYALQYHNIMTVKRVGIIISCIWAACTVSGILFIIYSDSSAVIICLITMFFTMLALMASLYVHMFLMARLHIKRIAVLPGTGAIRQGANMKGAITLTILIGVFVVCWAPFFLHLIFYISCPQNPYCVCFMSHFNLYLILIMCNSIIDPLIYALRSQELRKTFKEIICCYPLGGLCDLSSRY

Consider `COc1ccc(-n2nc(Sc3ccc(Cl)cc3)cc(CC[C@@H](C)NC(=O)[C@H]3CNCC[C@@H]3c3ccsc3)c2=O)cc1`, for which the IC50 at Melanocortin receptor 4 [1] turned out to be 130 nM. This molecule gave a Max on Melanocortin receptor 4 [2] of 82%. At Melanocortin receptor 4 [3], the EC50 was 490 nM.
On to `COc1ccc(N2N=C(Sc3ccc(Cl)cc3)CC(CC[C@@H](C)NC(=O)[C@H]3CCNC[C@@H]3c3ccc(F)cc3)C2=O)cc1` (stereo in doubt; 63) [listing 1 of 2 here], for which the IC50 on Melanocortin receptor 4 [1] turned out to be 22 nM; in assay [6], 1100 nM; on Melanocortin receptor 3 [7] it was 4700 nM; at Melanocortin receptor 4 [8] it was 22 nM; at Melanocortin receptor 5 [9] it was 3100 nM. The results for the EC50 (in assay [4]; on Melanocortin receptor 3 [5]; on Melanocortin receptor 4 [3]) were 220 nM, 1100 nM and 30 nM, respectively.
As to `COc1ccc(N2N=C(Sc3ccc(Cl)cc3)CC(CC[C@@H](C)NC(=O)C3CNC[C@@H]3c3ccc(F)cc3)C2=O)cc1` (single isomer, unassigned; 67) [listing 1 of 2 here], the Max on Melanocortin receptor 3 [10] is 10%; at Melanocortin receptor 5 [11] it was 5%; at Melanocortin receptor 4 [12] it was 90%.
`COc1ccc(-n2nc(Sc3ccc(Cl)cc3)cc(CC[C@@H](C)NC(=O)[C@H]3CCNC[C@@H]3Cc3ccc(F)cc3)c2=O)cc1` returned a half-inhibitory concentration (IC50) at Melanocortin receptor 4 [1] of 390 nM. The same molecule gave a Max on Melanocortin receptor 4 [2] of 62%. The molecule also gave an EC50 on Melanocortin receptor 4 [3] of 630 nM.
With `COc1ccc(-n2nc(Sc3ccc(Cl)cc3)cc(CC[C@@H](C)NC(=O)[C@H]3CNCC[C@@H]3c3ccc(F)cc3)c2=O)cc1`, the IC50 came out at 940 nM on Melanocortin receptor 3 [13], 840 nM on Melanocortin receptor 5 [14] and 11 nM on Melanocortin receptor 4 [1]. Also, the Max on Melanocortin receptor 3 [10] stood at 6%; at Melanocortin receptor 5 [11], 7%; on Melanocortin receptor 4 [12] it was 71%. In addition, on Melanocortin receptor 4 [3], the half-maximal effective concentration (EC50) was determined as 61 nM.
`COc1ccc(-n2nc(Sc3ccc(Cl)cc3)cc(CC[C@@H](C)NC(=O)[C@H]3CNCC[C@@H]3c3ccc(C(F)(F)F)cc3)c2=O)cc1` had an IC50 at Melanocortin receptor 4 [1] of 3.8 nM. On Melanocortin receptor 4 [2], this molecule had a Max of 24%. At Melanocortin receptor 4 [3], the EC50 was > 5000 nM.
Regarding `COc1ccc(N2N=C(Sc3ccc(Cl)cc3)CC(CC[C@@H](C)NC(=O)C3CNC[C@@H]3c3ccc(F)cc3)C2=O)cc1` (single isomer, unassigned; 67) [listing 2 of 2 here], the IC50 on Melanocortin receptor 4 [1] stood at 18 nM; in assay [6], 290 nM; on Melanocortin receptor 3 [7] it was 1600 nM; on Melanocortin receptor 5 [9], 690 nM. For the same molecule, the figures for the EC50 (in assay [4]; at Melanocortin receptor 4 [3]) were 240 nM and 66 nM, respectively.
As for `COc1ccc(-n2nc(Sc3ccc(Cl)cc3)cc(CC[C@@H](C)NC(=O)[C@H]3CCNC[C@@H]3c3ccc(F)cc3)c2=O)cc1`, the 50% inhibitory concentration (IC50) at Melanocortin receptor 5 [14] is 1200 nM; on Melanocortin receptor 4 [1], 66 nM. For the same molecule, the results for the Max at Melanocortin receptor 3 [10], on Melanocortin receptor 5 [11] and at Melanocortin receptor 4 [12] were 45%, 1% and 101%, respectively. Moreover, the concentration for a half-maximal effect (EC50) at Melanocortin receptor 4 [3] worked out at 110 nM. At Melanocortin receptor 3 [15], this molecule displayed an inhibition of 40%.
With `COc1ccc(N2N=C(Sc3ccc(Cl)cc3)CC(CC[C@@H](C)NC(=O)[C@H]3CNCC[C@@H]3c3ccc(F)cc3)C2=O)cc1` (stereo in doubt; 26) [listing 1 of 2 here], the IC50 stood at 1.5 nM at Melanocortin receptor 4 [1]; 230 nM in assay [6]; 420 nM on Melanocortin receptor 3 [7]; 1.5 nM on Melanocortin receptor 4 [8]; 1100 nM at Melanocortin receptor 5 [9]. The EC50 was found to be 2400 nM at Melanocortin receptor 5 [16] and 40 nM at Melanocortin receptor 4 [3].
As for `COc1ccc(N2N=C(Sc3ccc(Cl)cc3)CC(CC[C@@H](C)NC(=O)[C@H]3CNCC[C@@H]3c3ccc(F)cc3)C2=O)cc1` (stereo in doubt; 26) [listing 2 of 2 here], the Max on Melanocortin receptor 5 [17] was found to be 27%; at Melanocortin receptor 3 [10], 5%; at Melanocortin receptor 4 [12], 67%; in assay [18], 12%.
In turn, `COc1ccc(-n2nc(Sc3ccc(Cl)cc3)cc(CC[C@@H](C)NC(=O)[C@H]3CNCC[C@@H]3c3cccc(F)c3)c2=O)cc1` gave an IC50 at Melanocortin receptor 4 [1] of 490 nM. Also, the Max on Melanocortin receptor 4 [2] worked out at 29%.
The molecule `COc1ccc(-n2nc(Sc3ccc(Cl)cc3)cc(CC[C@@H](C)NC(=O)[C@H]3CNCC[C@@H]3c3ccc(C)cc3)c2=O)cc1` had an IC50 at Melanocortin receptor 4 [1] of 4.7 nM. This molecule also had a Max on Melanocortin receptor 4 [2] of 47%. The same molecule gave an EC50 at Melanocortin receptor 4 [3] of 1100 nM.
Turning to `COc1ccc(-n2nc(Sc3ccc(Cl)cc3)cc(CC[C@@H](C)NC(=O)[C@H]3CNC[C@@H]3c3ccc(F)cc3)c2=O)cc1`, the IC50 was > 3000 nM on Melanocortin receptor 3 [13], 1400 nM at Melanocortin receptor 5 [14] and 70 nM at Melanocortin receptor 4 [1]. Also, the EC50 on Melanocortin receptor 3 [5] turned out to be 2400 nM; on Melanocortin receptor 4 [3], 110 nM. In addition, the values for the Max on Melanocortin receptor 3 [19], on Melanocortin receptor 5 [11] and at Melanocortin receptor 4 [12] were 24%, 5% and 84%, respectively.
On to `COc1ccc(N2N=C(Sc3ccc(Cl)cc3)CC(CC[C@@H](C)NC(=O)[C@H]3CCNC[C@@H]3c3ccc(F)cc3)C2=O)cc1` (stereo in doubt; 63) [listing 2 of 2 here], for which the Max on Melanocortin receptor 3 [19] was determined as 21%; on Melanocortin receptor 5 [11], 7%; at Melanocortin receptor 4 [12], 98%.
On Melanocortin receptor 4 [1], `COc1ccc(-n2nc(Sc3ccc(Cl)cc3)cc(CC[C@@H](C)NC(=O)[C@H]3CCNC[C@@H]3Cc3ccccc3)c2=O)cc1` yielded an IC50 of 750 nM. This molecule also showed a Max on Melanocortin receptor 4 [2] of 36%.
For `COc1ccc(-n2nc(Sc3ccc(Cl)cc3)cc(CC[C@H](C)NC(=O)[C@@H]3CNCCN3c3ccc(F)cc3)c2=O)cc1` the same measures were 1000 nM and 38%.

These data come from ChEMBL document CHEMBL1142811, “Design and syntheses of melanocortin subtype-4 receptor agonists. Part 2: discovery of the dihydropyridazinone motif” (Bioorg Med Chem Lett, 2005).
